According to PubChem BioAssay (NCI):
Values joined by “and” are separate entries in the source; they are usually repeats but may differ in a detail not shown here. Identical values can stand only once.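 Assay format: 96-well plates, 48-hour exposure. Abbreviation: GI50, concentration required for 50% inhibition of growth. TGI: concentration producing complete growth inhibition.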

What was measured:
Experiment in all cases: NCI anticancer screen, dose series, 48 h
LOX IMVI melanoma = tested on: LOX IMVI melanoma
SNB-75 CNS = tested on: SNB-75 CNS
A549 NSCLC = tested on: A549 NSCLC
SW-620 colon = tested on: SW-620 colon
HL-60(TB) leukemia = tested on: HL-60(TB) leukemia
786-0 renal = tested on: 786-0 renal
M14 melanoma = tested on: M14 melanoma
HCC-2998 colon = tested on: HCC-2998 colon
MDA-MB-435 = tested on: MDA-MB-435
T-47D breast = tested on: T-47D breast

## COC(=O)C/C(C)=C/[C@@H](O)[C@H]1O[C@@H]2CC/C(Cl)=C/C/C=C(/C)[C@H](OC(C)=O)CC(=O)O[C@@H]1C2
LOX IMVI melanoma
  GI50: 1.97 µM
  TGI: 11.2 µM
SNB-75 CNS
  GI50: 1.16 µM
  TGI: 6.14 µM
A549 NSCLC
  GI50: 10 µM
  TGI: > 25 µM
SW-620 colon
  GI50: 19.1 µM
  TGI: > 25 µM
HL-60(TB) leukemia
  GI50: 1.8 µM
  TGI: 11.9 µM
786-0 renal
  GI50: 0.708 µM
  TGI: 2.53 µM

## O=C1C(Cl)=C(Oc2ccccc2)C(=O)c2ccccc21
LOX IMVI melanoma
  GI50: 9.98 µM
  TGI: 22.7 µM
SNB-75 CNS
  GI50: 1.93 µM
  TGI: 12.9 µM
A549 NSCLC
  GI50: 21 µM
  TGI: 51.8 µM
M14 melanoma
  GI50: 8.55 µM
  TGI: 22 µM
HCC-2998 colon
  GI50: 4.28 µM
  TGI: 15.9 µM
SW-620 colon
  GI50: 1.81 µM
  TGI: 3.57 µM
MDA-MB-435
  GI50: 8.06 µM
  TGI: 24.1 µM
HL-60(TB) leukemia
  GI50: 2.54 µM
  TGI: 17.7 µM
786-0 renal
  GI50: 15.6 µM
  TGI: 29.1 µM

## Brc1nc2c3ccccc3ncn2c1Br
LOX IMVI melanoma
  TGI: 77.4 µM
SNB-75 CNS
  TGI: 44.2 µM
A549 NSCLC
  TGI: > 100 µM
M14 melanoma
  TGI: > 100 µM
HCC-2998 colon
  TGI: > 100 µM
SW-620 colon
  TGI: > 100 µM
HL-60(TB) leukemia
  TGI: > 100 µM
786-0 renal
  TGI: > 100 µM

## COc1ccc(/C=C\c2cc(OC)c(OC)c(OC)c2)cc1NC(=O)[C@@H](N)CO
LOX IMVI melanoma
  GI50: 0.0376 µM
  TGI: > 100 µM
SNB-75 CNS
  GI50: < 0.0128 µM
  TGI: > 66.7 µM
A549 NSCLC
  GI50: 0.0295 µM
  TGI: > 100 µM
M14 melanoma
  GI50: 0.0123 µM
  TGI: > 100 µM
HCC-2998 colon
  GI50: 0.0199 µM
  TGI: > 100 µM
SW-620 colon
  GI50: 0.027 µM
  TGI: > 100 µM
HL-60(TB) leukemia
  GI50: < 0.0178 µM
  TGI: 0.758 µM
786-0 renal
  GI50: 0.0188 µM
  TGI: > 40.3 µM

## CCC12CCC(O)C1N(C)CCC2Sc1ccccc1 (stereo unspecified)
LOX IMVI melanoma
  TGI: > 100 µM
SNB-75 CNS
  TGI: 87.9 µM
A549 NSCLC
  TGI: > 100 µM
M14 melanoma
  TGI: > 100 µM
HCC-2998 colon
  TGI: 94.8 µM
SW-620 colon
  TGI: > 100 µM
HL-60(TB) leukemia
  TGI: 56.5 µM
786-0 renal
  TGI: > 100 µM

## Cc1cc(N(CCC#N)CCC#N)ccc1N=Nc1ccccc1[N+](=O)[O-]
LOX IMVI melanoma
  TGI: > 100 µM
SNB-75 CNS
  TGI: > 100 µM
A549 NSCLC
  TGI: > 100 µM
M14 melanoma
  TGI: > 100 µM
HCC-2998 colon
  TGI: > 100 µM
SW-620 colon
  TGI: > 100 µM
HL-60(TB) leukemia
  TGI: > 100 µM
786-0 renal
  TGI: > 100 µM

## CN(C)CCN1N=Nc2cccc3cccc1c23
LOX IMVI melanoma
  TGI: > 100 µM
SNB-75 CNS
  TGI: > 100 µM
A549 NSCLC
  TGI: > 100 µM
M14 melanoma
  TGI: > 100 µM
HCC-2998 colon
  TGI: > 100 µM
SW-620 colon
  TGI: > 53.6 µM
HL-60(TB) leukemia
  TGI: > 70.8 µM
786-0 renal
  TGI: > 100 µM

## N#C[C@]12CC3(CC[C@H]1CC1(C2)OCCO1)OCCO3
SNB-75 CNS
  TGI: > 100 µM
A549 NSCLC
  TGI: > 100 µM
M14 melanoma
  TGI: > 100 µM
HCC-2998 colon
  TGI: > 100 µM
SW-620 colon
  TGI: > 100 µM
HL-60(TB) leukemia
  TGI: > 100 µM
786-0 renal
  TGI: > 100 µM

## O=NN(CCCl)C(=O)NCc1ccc[n+]([O-])c1
LOX IMVI melanoma
  TGI: > 100 µM
A549 NSCLC
  TGI: > 100 µM
M14 melanoma
  TGI: > 100 µM
HCC-2998 colon
  TGI: > 100 µM
SW-620 colon
  TGI: > 100 µM
HL-60(TB) leukemia
  TGI: > 100 µM
786-0 renal
  TGI: > 100 µM

## CC1=CCP(C(F)(F)F)P(C(F)(F)F)C1 (stereo unspecified)
LOX IMVI melanoma
  TGI: > 100 µM
SNB-75 CNS
  TGI: > 100 µM
A549 NSCLC
  TGI: > 100 µM
M14 melanoma
  TGI: > 100 µM
HCC-2998 colon
  TGI: > 100 µM
SW-620 colon
  TGI: > 100 µM
HL-60(TB) leukemia
  TGI: > 100 µM
786-0 renal
  TGI: > 100 µM

## C=CC[P@@]1(=O)O[C@H](c2ccccc2)C(C)N1C(C)C (stereo partly specified)
LOX IMVI melanoma
  TGI: > 100 µM
SNB-75 CNS
  TGI: > 100 µM
A549 NSCLC
  TGI: > 100 µM
M14 melanoma
  TGI: > 100 µM
HCC-2998 colon
  TGI: > 100 µM
SW-620 colon
  TGI: > 100 µM
HL-60(TB) leukemia
  TGI: > 100 µM
786-0 renal
  TGI: > 100 µM

## Cc1c2cc[n+](C)cc2c(C)c2c1[nH]c1ccc(OC(C)C)cc12
LOX IMVI melanoma
  TGI: 21.4 µM and 26.2 µM
SNB-75 CNS
  TGI: 0.82 µM and 1.99 µM
A549 NSCLC
  TGI: > 100 µM
M14 melanoma
  TGI: 35 µM and 26.7 µM
HCC-2998 colon
  GI50: 2.87 µM and 6.45 µM
  TGI: 9.95 µM and 20 µM
SW-620 colon
  TGI: 37.9 µM and 21.3 µM
HL-60(TB) leukemia
  TGI: 11.2 µM and 39.9 µM
786-0 renal
  GI50: 0.223 µM and 1.41 µM
  TGI: 9.1 µM and 32.5 µM

## O=C(c1ccccc1)c1ccc2cccc(O)c2n1
LOX IMVI melanoma
  TGI: 28 µM
SNB-75 CNS
  TGI: > 100 µM
A549 NSCLC
  TGI: > 100 µM
M14 melanoma
  TGI: 28 µM
HCC-2998 colon
  TGI: > 100 µM
SW-620 colon
  TGI: 32.4 µM
786-0 renal
  TGI: 51.6 µM

## CN(C)CCCNC(=O)c1cc(NC(=O)c2cc(NC(=O)CCCN3c4ccccc4C=Cc4ccccc43)cn2C)cn1C
SNB-75 CNS
  GI50: 13.6 µM
  TGI: 62.9 µM
A549 NSCLC
  GI50: 11.5 µM
  TGI: 39.9 µM
M14 melanoma
  GI50: 2.97 µM
  TGI: > 100 µM
HCC-2998 colon
  GI50: 2.17 µM
  TGI: 4.03 µM
SW-620 colon
  GI50: 3.96 µM
  TGI: > 100 µM
HL-60(TB) leukemia
  GI50: 14.3 µM
  TGI: 41.4 µM
786-0 renal
  GI50: 11.4 µM
  TGI: > 100 µM
T-47D breast
  GI50: 17.1 µM
  TGI: > 100 µM

## CCCCCCC(O)C/C=C/CCCCCC/C(C(=O)OC)=C(/O)C(=O)OCC (stereo unspecified)
LOX IMVI melanoma
  TGI: > 100 µM
SNB-75 CNS
  TGI: > 100 µM
A549 NSCLC
  TGI: > 100 µM
M14 melanoma
  TGI: > 100 µM
HCC-2998 colon
  TGI: > 100 µM
SW-620 colon
  TGI: > 100 µM
HL-60(TB) leukemia
  TGI: > 100 µM
786-0 renal
  TGI: > 100 µM

## COC(=O)C(=O)C(C(=O)C(=O)Nc1ccc([N+](=O)[O-])cc1[N+](=O)[O-])c1nc2ccc([N+](=O)[O-])cc2[nH]c1=O (stereo unspecified)
LOX IMVI melanoma
  TGI: > 100 µM
SNB-75 CNS
  TGI: 84.9 µM
A549 NSCLC
  TGI: > 100 µM
M14 melanoma
  TGI: > 100 µM
HCC-2998 colon
  TGI: > 100 µM
SW-620 colon
  TGI: > 100 µM
HL-60(TB) leukemia
  TGI: > 100 µM
786-0 renal
  TGI: > 100 µM

## CC1=C(C(=O)Nc2ccc(F)c(Cl)c2)C(c2cccc(O)c2)NC(=S)N1 (stereo unspecified)
LOX IMVI melanoma
  GI50: 13.7 µM
  TGI: 41 µM
SNB-75 CNS
  GI50: 14.4 µM
  TGI: 41.3 µM
A549 NSCLC
  GI50: 21 µM
  TGI: > 50 µM
M14 melanoma
  GI50: 14.7 µM
  TGI: > 50 µM
SW-620 colon
  GI50: 20.6 µM
  TGI: > 50 µM
MDA-MB-435
  GI50: 11.6 µM
  TGI: 28.9 µM
HL-60(TB) leukemia
  GI50: 25.8 µM
  TGI: > 50 µM
786-0 renal
  GI50: 19.1 µM
  TGI: > 50 µM
T-47D breast
  GI50: > 50 µM
  TGI: > 50 µM

## N#Cc1c2ccccc2c2nnc3cc(C(F)(F)F)ccc3n12
LOX IMVI melanoma
  GI50: 21.7 µM
  TGI: 62.9 µM
SNB-75 CNS
  GI50: > 100 µM
  TGI: > 100 µM
A549 NSCLC
  GI50: 36.3 µM
  TGI: > 100 µM
M14 melanoma
  GI50: 29.7 µM
  TGI: > 100 µM
SW-620 colon
  GI50: > 100 µM
  TGI: > 100 µM
MDA-MB-435
  GI50: 31.4 µM
  TGI: > 100 µM
HL-60(TB) leukemia
  GI50: 58.6 µM
  TGI: > 100 µM
786-0 renal
  GI50: > 100 µM
  TGI: > 100 µM
T-47D breast
  GI50: > 100 µM
  TGI: > 100 µM

## Cc1ccc(C)c(-n2c(-c3ccc(Br)cc3)csc2=NC(=O)c2ccccc2F)c1
LOX IMVI melanoma
  GI50: > 100 µM
  TGI: > 100 µM
SNB-75 CNS
  GI50: > 100 µM
  TGI: > 100 µM
A549 NSCLC
  GI50: > 100 µM
  TGI: > 100 µM
M14 melanoma
  GI50: > 100 µM
  TGI: > 100 µM
HCC-2998 colon
  GI50: > 100 µM
  TGI: > 100 µM
SW-620 colon
  GI50: > 100 µM
  TGI: > 100 µM
MDA-MB-435
  GI50: > 100 µM
  TGI: > 100 µM
HL-60(TB) leukemia
  GI50: 2.82 µM
  TGI: > 100 µM
786-0 renal
  GI50: > 100 µM
  TGI: > 100 µM
